Experimental data as given in US7998981B2, “Aminoaryl sulphonamide derivatives as functional 5-HT6 ligands” (Suven Life Sciences Limited, priority 2005, dated 2011).

Assays:
Human 5-HT6 Receptor = target: T1, Human 5-HT6 Receptor (Homo sapiens, UniProt P50406); test: Nova Screen binding assay for human 5-HT6 receptor ([3H]LSD radioligand binding); details: human recombinant receptor expressed in HEK293 cells, [3H]LSD 1.5 nM; for inhibition at 0.1 µM: read-out: % Inhibition at 100 nM, radioligand binding data at 5ht6R (h); for Ki: 60 minutes at 37° C., read-out: Ki, radioligand binding data at 5ht6R (h)
T1 construct: host or cells: HEK293
T1 sequence (P50406 whole entry): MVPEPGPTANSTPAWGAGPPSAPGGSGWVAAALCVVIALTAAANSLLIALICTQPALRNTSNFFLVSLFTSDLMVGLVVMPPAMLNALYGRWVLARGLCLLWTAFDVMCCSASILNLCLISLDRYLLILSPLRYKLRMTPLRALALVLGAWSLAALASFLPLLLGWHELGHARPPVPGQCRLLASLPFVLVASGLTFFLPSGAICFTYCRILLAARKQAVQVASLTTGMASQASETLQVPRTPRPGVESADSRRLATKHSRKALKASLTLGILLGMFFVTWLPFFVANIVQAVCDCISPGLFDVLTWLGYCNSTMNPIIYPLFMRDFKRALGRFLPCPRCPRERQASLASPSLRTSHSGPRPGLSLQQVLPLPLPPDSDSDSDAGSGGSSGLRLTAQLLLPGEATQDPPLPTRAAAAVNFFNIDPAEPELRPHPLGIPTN
Procedure: Nova Screen Binding Assay for Human 5-HT6 Receptor
Pharmacological data Compounds can be tested according to the following the procedures.
Receptor source: Human recombinant expressed in HEK293 cells
Radioligand: [^3H]LSD (60-80 Ci/mmol)
Final ligand concentration—[1.5 nM]
Non-specific determinant: Methiothepin mesylate—[0.1 μM]
Reference compound: Methiothepin mesylate
Positive control: Methiothepin mesylate
Incubation conditions: Reactions were carried out in 50 mM TRIS-HCl (pH 7.4) containing 10 mM MgCl2, 0.5 mM EDTA for 60 minutes at 37° C. The reaction was terminated by rapid vacuum filtration onto glass fiber filters. Radioactivity trapped onto the filters was determined and compared to control values in order to ascertain any interactions of test compound(s) with the cloned serotonin -5HT6 binding site.
Literature Reference: Monsma F. J. Jr., et al., Molecular Cloning and Expression of Novel Serotonin Receptor with High Affinity for Tricyclic Psychotropic Drugs. Mol. Pharmacol. (43): 320-327 (1993).

Male Wistar rats = test: Object recognition task model; assay type: in vivo, rat; details: orally or i.p. one hour before T1 and T2; T2 24 hour after T1; example 6 at 10 mg/Kg orally (FIG. 1)
Procedure: Object Recognition Task Model
The cognition-enhancing properties of compounds of this invention were estimated using a model of animal cognition: the object recognition task model.
Male wistar rats (230-280 g) obtained from N I.N. (National Institute of Nutrition, Hyderabad, India) were used as an experimental animal. Four animals were housed in each cage. Animals were kept on 20% food deprivation before one day and given water ad libitum throughout the experiment, and maintained on a 12 h light/dark cycle. Also the rats were habituated to individual arenas for 1 hour in absence of any objects.
One group of 12 rats received vehicle (1 mL/Kg) orally and another set of animals received compound of the formula (I) either orally or i.p., before one hour of the familiar (T1) and choice trial (T2). The experiment was carried out in a 50×50×50 Cm open field made up of acrylic. In the familiarization phase, (T1), the rats were placed individually in the open field for 3 min., in which two identical objects (plastic bottles, 12.5 Cm height×5.5 Cm diameter) covered in yellow masking tape alone (a1 and a2) were positioned in two adjacent corners, 10 Cm. from the walls. After 24 hour of the (T1) trial for long-term memory test, the same rats were placed in the same arena as they were placed in T1 trial. […]

Adult male Wistar rats = test: Passive avoidance (single-trial, step through, light-dark paradigm); assay type: in vivo, rat; details: 10 mg/Kg oral dose; recall 24 h, 72 h and 7 day post-training (FIG. 2)
Excerpt: Passive Avoidance Apparatus Animals were trained in a single-trial, step through, light-dark passive avoidance paradigm. The training apparatus consisted of a chamber 300 mm in length, 260 mm wide, and 270 mm in height, constructed to established designs. The front and top were transparent, allowing the experimenter to observe the behavior of the animal inside the apparatus. The chamber was divided into two compartments, separated by a central shutter that contained a small opening 50 mm wide and 75 mm high set close to the front of the chamber. The smaller of the compartments measured […] in width and contained a low-power (6V) illumination source. The larger compartment measured 210 mm in width and was not illuminated. […] A resistance range of […] was calculated for a control group of rats and the apparatus was calibrated accordingly. […] Latency to enter the dark chamber was recorded (usually <20 s), and having completely entered the dark compartment an inescapable foot shock of 0.75 mA for 3 s was administered to the animal. […] Recall of this inhibitory stimulus was evaluated 24 h, 72 h and on 7 day post-training by returning the animal into the light chamber and recording their latency to enter the dark chamber, a criterion time of 300 s was employed.

inhibition at 0.1 µM (Human 5-HT6 Receptor; 100 nM) | Ki (Human 5-HT6 Receptor) | SMILES | % Inhibition at 100 nM, radioligand binding data at 5ht6R (h) (Human 5-HT6 Receptor; 100 nM) | novel object recognition (exploration time with novel object, discrimination index) (Male Wistar rats) | latency to reach the dark zone (Adult male Wistar rats)
82.2% | 12.5 nM | COc1ccc2c(ccn2S(=O)(=O)c2cccc(NC3CCN(C)CC3)c2)c1 [Example 2, 1-[3-(1-Methylpiperidin-4-yl)amino]benzenesulfonyl-5-methoxyindole] | – | – | –
101% | 1.29 nM | COc1ccc(S(=O)(=O)n2ccc3ccccc32)cc1NC1CCN(C)CC1 [Example 17, 1-[3-(1-Methylpiperidin-4-yl)amino-4-methoxy]benzenesulfonyl-1H-indole] | – | – | –
– | – | CN1CCC(Nc2cc(S(=O)(=O)n3ccc4ccccc43)ccc2F)CC1 [Example 25, 1-[3-(1-Methylpiperidin-4-yl)amino-4-Fluoro]benzenesulfonylindole] | 99.33% | – | –
85.3% | 20.9 nM | COc1ccc2c(ccn2S(=O)(=O)c2ccc(C)c(NC3CCN(C)CC3)c2)c1 [Example 10, 1-[3-(1-Methylpiperidin-4-yl)amino-4-methyl]benzenesulfonyl-5-methoxyindole] | – | – | –
92.2% | 10.3 nM | CN1CCC(Nc2cccc(S(=O)(=O)n3ccc4cc(Br)ccc43)c2)CC1 [Example 4, 1-[3-(1-Methylpiperidin-4-yl)amino]benzenesulfonyl-5-bromoindole] | – | – | –
96.8% | 3.19 nM | CN1CCC(Nc2cccc(S(=O)(=O)n3ccc4ccccc43)c2)CC1 [Example 1, 1-[3-(1-Methylpiperidin-4-yl)amino]benzenesulfonyl-1H-indole] | – | – | –
93.2% | 7 nM | CN1CCC(Nc2cccc(S(=O)(=O)n3ccc4cc(F)ccc43)c2)CC1 [Example 6, 1-[3-(1-Methylpiperidin-4-yl)amino]benzenesulfonyl-5-fluoroindole] | – | positive effects | significant increase in latency
